Data on 19 sequences can be found in paper PMC6383519 (Cancer immunology, immunotherapy : CII, 2013).

Entries after “also recorded” stand apart in the source; their conditions may differ. Like-named read-outs stand apart in the source and are kept apart here.

For assay [1], the system named is HLA-A2 molecule on T2 cells. Briefly: T2-cell binding. The arrangement: species or system human. Particulars: for Actual binding: T2-A2 cells, peptide 12.5 μg/ml, overnight incubation, flow cytometry, mean fluorescence intensity; for T2-A2 binding (rank): ranking among 5 potential MUC1-C agonist epitopes.
The subject of assay [2] is PBMCs of cancer patients. Description: Establishment of peptide-specific T-cell lines. Particulars: PBMCs of vaccinated cancer patients, autologous DCs pulsed with 20 μg/ml peptide. The format is cell-based, human.
Assay [3] has as its system MUC1 peptide-specific CD8+ T cells. Description: Tetramer staining. Particulars: Supplemental Fig. 3; for binding of T-cell line to corresponding tetramer: HLA-A3 tetramers; for binding of T-cell line to the control tetramer: negative control tetramer. The format is cell-based, human.
The test system of assay [4] is C1RA3 cells pulsed with the corresponding peptide. Description: Lysis of cells pulsed with the corresponding peptide. The format is cell-based, human. Particulars: T-cell lines from PBMCs of HLA-A3 patients vaccinated with PANVAC.
Assay [5] has as its system MUC1-specific T-cell lines. The format is cell-based, human.
For assay [6], the system named is MUC1-specific T-cell lines. Description: IFN-γ production by peptide-specific T-cell lines. The format is cell-based, human. Particulars: ranking among 5 potential MUC1-C agonist epitopes.
In assay [7] the test system is tumor cells endogenously expressing the native antigen. Description: Ranking of killing by peptide-specific CTL. Particulars: ranking among 5 potential MUC1-C agonist epitopes. The format is cell-based, human.
The mark [8] stands for this setting: HLA-A24, T-cell line T-C7A stimulated 24h with B-cells pulsed with the peptide.
[9] abbreviates: HLA-A24, T-cell line T-C7 stimulated 24h with B-cells pulsed with the peptide.

As for ALAIVYLIAL [Peptide C1], the Actual binding in assay [1] was found to be 249 MFI.

Consider ALAIVYLIAL [Peptide C4], for which the “generation of T-cell lines with the peptide” value (“generation of T-cell lines” for short) in assay [2] is given as “grew poorly”.

Regarding ALFIVYLIAK [Peptide C4A], the “generation of T-cell lines” value in assay [2] is given as “could be derived”. Besides, in assay [3], the “binding of T-cell line to corresponding tetramer” value was determined as 20.2% and the “binding of T-cell line to the control tetramer” value is on record as under 0.04%. Further, the “lysis of C1RA3 cells pulsed with the corresponding peptide” value in assay [4] is listed as “seen”.

In assay [1], APDTRPAPG [Peptide V2] yielded an Actual binding of 210 MFI. Moreover, in assay [2], the “generation of T-cell lines” value is on record as “could not be generated”.

On to KYHPMSEYAL [Peptide C6A], for which, in assay [2], the “generation of T-cell lines” value is “could be generated”. In addition, the IFN-γ in assay [5] (stimulation of the T-cell line generated with the C6A agonist peptide) is on record as 2,651 pg/ml/10^5 cells.

For KYTNPAVAL [Peptide C7A], the “generation of T-cell lines” value in assay [2] is recorded as “could be generated”. For the same sequence, in assay [5] (setting [8]), the GM-CSF was determined as 910 pg/ml/2.5 × 10^5 T cells, the IFN-γ was 2,000 pg/ml/2.5 × 10^5 T cells, the IL-2 is reported as under 2.4 pg/ml/2.5 × 10^5 T cells and the IL-6 is 40 pg/ml/2.5 × 10^5 T cells. In assay [5] (setting [8]), the IL-8 was 360 pg/ml/2.5 × 10^5 T cells, the IL-10 was 375 pg/ml/2.5 × 10^5 T cells and the TNFα stood at 70 pg/ml/2.5 × 10^5 T cells. Besides, in assay [5] (setting [9]), the GM-CSF is 300 pg/ml/2.5 × 10^5 T cells, the IFN-γ is 1,279 pg/ml/2.5 × 10^5 T cells, the IL-2 is under 2.4 pg/ml/2.5 × 10^5 T cells and the IL-6 was determined as 7.7 pg/ml/2.5 × 10^5 T cells. In assay [5] (setting [9]), the IL-8 is recorded as 7.3 pg/ml/2.5 × 10^5 T cells, the IL-10 was 45 pg/ml/2.5 × 10^5 T cells and the TNFα is listed as 30 pg/ml/2.5 × 10^5 T cells.

On to SLFRSPYEK [Peptide C5A], for which the “generation of T-cell lines” value in assay [2] is given as “could be derived”. In addition, in assay [3], the “binding of T-cell line to corresponding tetramer” value is listed as 16.2% and the “binding of T-cell line to the control tetramer” value is listed as under 0.04%. Moreover, the “lysis of C1RA3 cells pulsed with the corresponding peptide” value in assay [4] is recorded as “seen”.

SLSYTNPAV [Peptide C3] had an Actual binding in assay [1] of 326 MFI.

Take STAPPAHGV [Peptide V1]: the Actual binding in assay [1] was 166 MFI. Besides, in assay [2], the “generation of T-cell lines” value is “could not be generated”.

Regarding STDRSPYEK [Peptide C5], the “generation of T-cell lines” value in assay [2] is “grew poorly”.

As for SYTNPAVAA [Peptide C7], the “generation of T-cell lines” value in assay [2] is “grew poorly; also recorded: could be generated”. In assay [5] (setting [8]), this sequence displayed a GM-CSF of 215 pg/ml/2.5 × 10^5 T cells, an IFN-γ of 680 pg/ml/2.5 × 10^5 T cells, an IL-2 of under 2.4 pg/ml/2.5 × 10^5 T cells and an IL-6 of under 2.4 pg/ml/2.5 × 10^5 T cells. In assay [5] (setting [8]), this sequence gave an IL-8 of 112 pg/ml/2.5 × 10^5 T cells, an IL-10 of 92 pg/ml/2.5 × 10^5 T cells and a TNFα of 30 pg/ml/2.5 × 10^5 T cells. In assay [5] (setting [9]), this sequence yielded a GM-CSF of 237 pg/ml/2.5 × 10^5 T cells, an IFN-γ of 750 pg/ml/2.5 × 10^5 T cells, an IL-2 of under 2.4 pg/ml/2.5 × 10^5 T cells and an IL-6 of 6.4 pg/ml/2.5 × 10^5 T cells. In assay [5] (setting [9]), this sequence returned an IL-8 of 6.8 pg/ml/2.5 × 10^5 T cells, an IL-10 of 25 pg/ml/2.5 × 10^5 T cells and a TNFα of 21 pg/ml/2.5 × 10^5 T cells.

For the sequence YLAIVYLIAL [Peptide C1A], in assay [1], the Actual binding was determined as 245 MFI and the “T2-A2 binding (rank)” value was determined as 5. Also, the “Level of IFN-γ produced by peptide-specific CTL (rank)” value (“Level of IFN-γ produced” for short) in assay [6] was determined as 3. Besides, in assay [7], the “Level of killing by peptide-specific CTL (rank)” value (from here on “Level of killing”) is on record as 2.

In assay [1], YLAPPAHGV [Peptide V1A] showed an Actual binding of 486 MFI. Also, the “generation of T-cell lines” value in assay [2] is “successfully generated”.

YLDTRPAPV [Peptide V2A] registered an Actual binding in assay [1] of 647 MFI. Also, in assay [2], the “generation of T-cell lines” value is “successfully generated”.

YLIALAVCQC [Peptide C2] displayed an Actual binding in assay [1] of 211 MFI.

As for YLIALAVCQV [Peptide C2A], in assay [1], the Actual binding is 299 MFI and the “T2-A2 binding (rank)” value is on record as 3. The “Level of IFN-γ produced” value in assay [6] came out at 1. For the same sequence, the “Level of killing” value in assay [7] was 1.

As for YLLVLVCVLV [Peptide C9A], in assay [1], the “T2-A2 binding (rank)” value is recorded as 4. The “Level of IFN-γ produced” value in assay [6] is on record as “Negative”. Besides, the “Level of killing” value in assay [7] is given as “Negative”.

Consider YLSDVSVSDV [Peptide C8A], for which the “T2-A2 binding (rank)” value in assay [1] came to 2. Further, the “Level of IFN-γ produced” value in assay [6] stood at 4. In assay [7], the “Level of killing” value is “Negative”.

As to YLSYTNPAV [Peptide C3A], in assay [1], the Actual binding came to 342 MFI and the “T2-A2 binding (rank)” value is recorded as 1. The “Level of IFN-γ produced” value in assay [6] was 2. Besides, the “Level of killing” value in assay [7] turned out to be 3.
